Experiments:
[1] = target: Carbonic anhydrase 5B, mitochondrial (Homo sapiens, UniProt Q9Y2D0); assay: Binding affinity to recombinant full length N-terminal His6x-tagged human CA5B expressed in Escherichia coli Rosetta 2 (DE3) by DSF-based fluorescence thermal shift assay
Carbonic anhydrase 9 = Carbonic anhydrase 9 (Homo sapiens, UniProt Q16790); assay: Binding affinity to recombinant human CA9 by DSF-based fluorescence thermal shift assay
Carbonic anhydrase 7 = Carbonic anhydrase 7 (Homo sapiens, UniProt P43166); assay: Binding affinity to recombinant human CA7 by DSF-based fluorescence thermal shift assay
Carbonic anhydrase 12 = Carbonic anhydrase 12 (Homo sapiens, UniProt O43570); assay: Binding affinity to recombinant human CA12 by DSF-based fluorescence thermal shift assay
Carbonic anhydrase 6 = Carbonic anhydrase 6 (Homo sapiens, UniProt P23280); assay: Binding affinity to recombinant human CA6 by DSF-based fluorescence thermal shift assay
Carbonic anhydrase 3 = Carbonic anhydrase 3 (Homo sapiens, UniProt P07451); assay: Binding affinity to recombinant N-terminal His6x-tagged human CA3 (4 to 260 residues) expressed in Escherichia coli BL21(DE3) by DSF-based fluorescence thermal shift assay
Carbonic anhydrase 14 = Carbonic anhydrase 14 (Homo sapiens, UniProt Q9ULX7); assay: Binding affinity to recombinant N-terminal His6x-tagged human CA14 (20 to 280 residues) catalytic domain expressed in Escherichia coli Rosetta 2 (DE3) by DSF-based fluorescence thermal shift assay
Carbonic anhydrase 4 = Carbonic anhydrase 4 (Homo sapiens, UniProt P22748); assay: Binding affinity to recombinant human CA4 by DSF-based fluorescence thermal shift assay
Carbonic anhydrase 2 [2] = target: T1, Carbonic anhydrase 2 (Homo sapiens, UniProt P00918); assay: Binding affinity to recombinant human CA2 by DSF-based fluorescence thermal shift assay
Carbonic anhydrase 1 = Carbonic anhydrase 1 (Homo sapiens, UniProt P00915); assay: Binding affinity to recombinant human CA1 by DSF-based fluorescence thermal shift assay
Carbonic anhydrase 13 = Carbonic anhydrase 13 (Homo sapiens, UniProt Q8N1Q1); assay: Binding affinity to recombinant human CA13 by DSF-based fluorescence thermal shift assay
[3] = target: Carbonic anhydrase 5A, mitochondrial (Homo sapiens, UniProt P35218); assay: Binding affinity to recombinant full length C-terminal His6x-tagged human CA5A expressed in Escherichia coli BL21(DE3) by DSF-based fluorescence thermal shift assay
Carbonic anhydrase 2 [4] = target: T1, Carbonic anhydrase 2; assay: Binding affinity to recombinant human CA2 in pH 7 sodium phosphate buffer at 37 degC by isothermal titration calorimetry

Sequence of Carbonic anhydrase 5A, mitochondrial (P35218 whole entry): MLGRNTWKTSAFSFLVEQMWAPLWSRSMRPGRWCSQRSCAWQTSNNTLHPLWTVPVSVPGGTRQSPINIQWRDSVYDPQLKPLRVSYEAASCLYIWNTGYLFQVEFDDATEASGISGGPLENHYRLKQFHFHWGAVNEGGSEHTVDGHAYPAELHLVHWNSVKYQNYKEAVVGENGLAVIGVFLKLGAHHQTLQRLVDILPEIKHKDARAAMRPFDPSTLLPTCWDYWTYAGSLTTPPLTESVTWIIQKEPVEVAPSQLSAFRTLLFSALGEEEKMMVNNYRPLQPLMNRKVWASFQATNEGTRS
Sequence of Carbonic anhydrase 4 (P22748 whole entry): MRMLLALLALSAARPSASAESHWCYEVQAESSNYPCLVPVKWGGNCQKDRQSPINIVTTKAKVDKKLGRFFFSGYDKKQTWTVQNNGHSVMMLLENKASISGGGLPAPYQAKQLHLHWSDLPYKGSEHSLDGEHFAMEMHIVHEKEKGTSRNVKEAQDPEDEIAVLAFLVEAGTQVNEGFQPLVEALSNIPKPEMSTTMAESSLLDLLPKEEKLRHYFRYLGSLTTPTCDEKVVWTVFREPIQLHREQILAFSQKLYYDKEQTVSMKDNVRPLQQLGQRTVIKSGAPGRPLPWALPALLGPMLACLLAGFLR
Sequence of Carbonic anhydrase 1 (P00915 whole entry): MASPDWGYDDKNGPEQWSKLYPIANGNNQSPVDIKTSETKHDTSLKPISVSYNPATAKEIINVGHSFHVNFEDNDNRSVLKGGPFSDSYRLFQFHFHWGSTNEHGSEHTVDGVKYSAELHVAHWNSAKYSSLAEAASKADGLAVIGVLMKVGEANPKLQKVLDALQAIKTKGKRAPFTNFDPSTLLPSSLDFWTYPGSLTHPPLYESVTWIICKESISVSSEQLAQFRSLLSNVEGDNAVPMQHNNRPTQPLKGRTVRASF
Sequence of Carbonic anhydrase 12 (O43570 whole entry): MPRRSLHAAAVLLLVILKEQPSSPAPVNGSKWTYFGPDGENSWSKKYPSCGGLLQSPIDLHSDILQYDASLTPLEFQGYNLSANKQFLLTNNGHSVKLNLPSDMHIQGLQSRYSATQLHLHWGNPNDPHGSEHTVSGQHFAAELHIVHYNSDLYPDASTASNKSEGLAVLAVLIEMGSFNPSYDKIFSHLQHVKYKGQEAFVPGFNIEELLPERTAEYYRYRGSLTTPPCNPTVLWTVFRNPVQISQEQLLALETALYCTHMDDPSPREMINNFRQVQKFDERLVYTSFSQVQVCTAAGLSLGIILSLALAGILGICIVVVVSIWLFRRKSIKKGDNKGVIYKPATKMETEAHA
Sequence of Carbonic anhydrase 7 (P43166 whole entry): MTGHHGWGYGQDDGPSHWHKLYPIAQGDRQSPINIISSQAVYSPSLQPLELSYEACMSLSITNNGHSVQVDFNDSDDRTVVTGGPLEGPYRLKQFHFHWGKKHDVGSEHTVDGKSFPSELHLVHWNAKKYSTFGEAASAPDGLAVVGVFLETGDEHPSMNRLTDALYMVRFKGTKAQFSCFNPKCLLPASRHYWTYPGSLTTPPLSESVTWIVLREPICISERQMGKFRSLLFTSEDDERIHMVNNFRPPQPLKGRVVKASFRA
Sequence of Carbonic anhydrase 3 (P07451 whole entry, the tested form may be a part): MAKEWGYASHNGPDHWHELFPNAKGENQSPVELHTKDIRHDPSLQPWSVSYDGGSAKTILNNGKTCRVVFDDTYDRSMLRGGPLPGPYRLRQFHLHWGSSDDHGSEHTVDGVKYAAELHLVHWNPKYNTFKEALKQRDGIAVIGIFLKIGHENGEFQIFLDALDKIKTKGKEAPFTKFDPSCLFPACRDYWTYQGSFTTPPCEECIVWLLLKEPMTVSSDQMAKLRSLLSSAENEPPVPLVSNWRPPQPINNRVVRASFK
Sequence of Carbonic anhydrase 14 (Q9ULX7 whole entry, the tested form may be a part): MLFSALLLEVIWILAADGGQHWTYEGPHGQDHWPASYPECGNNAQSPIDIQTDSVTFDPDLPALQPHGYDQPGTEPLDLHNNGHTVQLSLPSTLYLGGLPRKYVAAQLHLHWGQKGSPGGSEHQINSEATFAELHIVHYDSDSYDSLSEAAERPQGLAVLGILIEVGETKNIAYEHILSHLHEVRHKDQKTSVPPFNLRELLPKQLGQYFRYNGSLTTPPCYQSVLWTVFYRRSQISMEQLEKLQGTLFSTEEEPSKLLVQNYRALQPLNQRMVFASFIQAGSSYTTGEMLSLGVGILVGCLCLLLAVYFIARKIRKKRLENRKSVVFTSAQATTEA
Sequence of Carbonic anhydrase 6 (P23280 whole entry, the tested form may be a part): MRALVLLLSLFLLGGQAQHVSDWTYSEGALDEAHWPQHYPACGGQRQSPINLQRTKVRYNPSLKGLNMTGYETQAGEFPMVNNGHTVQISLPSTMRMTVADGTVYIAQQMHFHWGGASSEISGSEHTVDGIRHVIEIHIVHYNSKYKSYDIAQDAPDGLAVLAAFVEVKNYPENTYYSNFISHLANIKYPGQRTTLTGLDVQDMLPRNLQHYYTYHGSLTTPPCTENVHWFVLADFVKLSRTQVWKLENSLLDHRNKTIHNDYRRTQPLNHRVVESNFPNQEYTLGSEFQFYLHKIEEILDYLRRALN
Sequence of Carbonic anhydrase 13 (Q8N1Q1 whole entry): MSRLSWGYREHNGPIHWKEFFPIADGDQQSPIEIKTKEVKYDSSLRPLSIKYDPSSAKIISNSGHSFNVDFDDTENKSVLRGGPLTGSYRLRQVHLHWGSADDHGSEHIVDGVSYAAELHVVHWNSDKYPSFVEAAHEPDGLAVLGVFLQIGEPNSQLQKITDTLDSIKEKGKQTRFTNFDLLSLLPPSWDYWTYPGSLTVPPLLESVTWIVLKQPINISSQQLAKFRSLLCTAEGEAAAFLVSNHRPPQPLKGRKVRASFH
Sequence of Carbonic anhydrase 5B, mitochondrial (Q9Y2D0 whole entry): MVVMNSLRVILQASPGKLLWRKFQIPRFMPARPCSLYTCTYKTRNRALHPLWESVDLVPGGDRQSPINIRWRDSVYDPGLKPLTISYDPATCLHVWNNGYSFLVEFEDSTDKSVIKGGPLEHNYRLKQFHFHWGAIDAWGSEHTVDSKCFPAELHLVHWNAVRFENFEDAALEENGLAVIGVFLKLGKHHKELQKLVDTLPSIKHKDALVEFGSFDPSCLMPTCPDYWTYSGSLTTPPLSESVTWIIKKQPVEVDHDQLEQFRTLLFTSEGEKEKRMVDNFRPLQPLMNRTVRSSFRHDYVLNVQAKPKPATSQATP

| SMILES | Kd [1] [nM] | Kd (Carbonic anhydrase 9) [nM] | Kd (Carbonic anhydrase 7) [nM] | Kd (Carbonic anhydrase 12) [nM] | Kd (Carbonic anhydrase 6) [nM] | Kd (Carbonic anhydrase 3) [nM] | Kd (Carbonic anhydrase 14) [nM] | Kd (Carbonic anhydrase 4) [nM] | Kd (Carbonic anhydrase 2 [2]) [nM] | Kd (Carbonic anhydrase 1) [nM] | Kd (Carbonic anhydrase 13) [nM] | Kd [3] [nM] | Kd (Carbonic anhydrase 2 [4]) [nM] |
| --- | --- | --- | --- | --- | --- | --- | --- | --- | --- | --- | --- | --- | --- |
| NS(=O)(=O)c1ccc(N2CC(C(=O)O)CC2=O)cc1 (stereo not drawn) | 4700 | 330 | 460 | 2000 | 6700 | ≥ 200000 | 720 | 2500 | 500 | 4200 | – | – | – |
| Cc1cc(N2CC(C(=O)NN)CC2=O)c(Cl)c(C)c1S(N)(=O)=O (stereo not drawn) | 140 | 330 | 100 | – | 4800 | ≥ 200000 | 40 | 500 | 140 | 2500 | 200 | – | – |
| Cc1cc(N2CC(C(=O)O)CC2=O)cc(C)c1S(N)(=O)=O (stereo not drawn) | 3300 | 5000 | 20000 | 7700 | 25000 | ≥ 200000 | 3200 | 5900 | 12000 | 20000 | 8300 | 8300 | – |
| Cc1cc(N2CC(C(=O)N/N=C/c3ccccc3)CC2=O)c(Cl)c(C)c1S(N)(=O)=O (stereo not drawn) | 20 | 100 | 33 | 770 | 1400 | ≥ 200000 | 12 | 770 | 56 | 560 | 33 | – | – |
| Cc1cc(N2CC(C(=O)N/N=C/c3ccccc3)CC2=O)cc(C)c1S(N)(=O)=O (stereo not drawn) | 710 | 2000 | 30000 | 29000 | 25000 | ≥ 200000 | 2000 | 5000 | 2200 | 2200 | 22000 | 2000 | – |
| Cc1cc(S(N)(=O)=O)c(C)cc1N1CC(C(=O)N/N=C/c2ccccc2)CC1=O (stereo not drawn) | 28 | 1400 | 1900 | 9300 | 9600 | ≥ 200000 | 470 | 7600 | 1300 | 7100 | 420 | – | – |
| Cc1cc(N2CC(C(=O)NN)CC2=O)cc(C)c1S(N)(=O)=O (stereo not drawn) | 1400 | 13000 | 50000 | 50000 | 50000 | ≥ 200000 | 5000 | 9100 | 11000 | 17000 | 100000 | 20000 | – |
| COC(=O)C1CC(=O)N(c2ccc(S(N)(=O)=O)cc2)C1 (stereo not drawn) | 3300 | 170 | 130 | 4000 | 94 | ≥ 200000 | 96 | 1500 | 150 | 1000 | 1100 | – | – |
| Cc1cc(S(N)(=O)=O)c(C)cc1N1CC(C(=O)NN)CC1=O (stereo not drawn) | 660 | 9000 | 4400 | 21000 | 24000 | ≥ 200000 | 4000 | 14000 | 8100 | 58000 | 2800 | – | – |
| Cc1cc(N2CC(C(=O)O)CC2=O)c(Cl)c(C)c1S(N)(=O)=O (stereo not drawn) | 530 | 290 | 56 | 1300 | 6300 | 110000 | – | 360 | 220 | 4300 | 220 | – | 697 |
| NNC(=O)C1CC(=O)N(c2ccc(S(N)(=O)=O)cc2)C1 (stereo not drawn) | 10000 | 630 | 670 | 4000 | 10000 | ≥ 200000 | 910 | 2200 | 500 | 3300 | 7700 | 50000 | – |
| NS(=O)(=O)c1ccc(N2CC(C(=O)N/N=C/c3ccccc3)CC2=O)cc1 (stereo not drawn) | 1300 | 59 | 500 | 2500 | 2000 | ≥ 200000 | 200 | 1300 | 170 | 630 | 830 | 1700 | – |
| Cc1cc(S(N)(=O)=O)c(C)cc1N1CC(C(=O)O)CC1=O (stereo not drawn) | 1100 | 2600 | 2700 | 8100 | 22000 | 160000 | 3900 | 19000 | 6400 | 38000 | 670 | – | – |
| Cc1c(Br)c(N2CC(C(=O)O)CC2=O)c(Br)c(C)c1S(N)(=O)=O (stereo not drawn) | ≥ 200000 | ≥ 200000 | ≥ 200000 | ≥ 200000 | ≥ 200000 | ≥ 200000 | – | ≥ 200000 | ≥ 200000 | ≥ 200000 | ≥ 200000 | – | – |
| COC(=O)C1CC(=O)N(c2c(Br)c(C)c(S(N)(=O)=O)c(C)c2Br)C1 (stereo not drawn) | ≥ 200000 | ≥ 200000 | ≥ 200000 | ≥ 200000 | ≥ 200000 | ≥ 200000 | – | ≥ 200000 | ≥ 200000 | ≥ 200000 | ≥ 200000 | – | – |
| Cc1cc(N2CC(C(=O)N/N=C/c3ccc([N+](=O)[O-])cc3)CC2=O)cc(C)c1S(N)(=O)=O (stereo not drawn) | 400 | 2000 | 33000 | 22000 | 10000 | ≥ 200000 | – | 4700 | 1700 | 1000 | 17000 | – | – |
| Cc1cc(N2CC(C(=O)N/N=C/c3ccc(Br)cc3)CC2=O)cc(C)c1S(N)(=O)=O (stereo not drawn) | 630 | 2500 | 37000 | 33000 | 18000 | ≥ 200000 | – | 20000 | 2900 | 2500 | 33000 | – | – |
| COC(=O)C1CC(=O)N(c2cc(C)c(S(N)(=O)=O)cc2C)C1 (stereo not drawn) | 180 | 1600 | 31 | 12000 | 29000 | ≥ 200000 | 840 | 10000 | 1600 | 11000 | 580 | – | – |
| Cc1cc(C)cc(N2CC(C(=O)O)CC2=O)c1 (stereo not drawn) | ≥ 200000 | ≥ 200000 | ≥ 200000 | ≥ 200000 | ≥ 200000 | ≥ 200000 | – | ≥ 200000 | ≥ 200000 | ≥ 200000 | ≥ 200000 | – | – |
| Cc1cc(C)n(C(=O)C2CC(=O)N(c3cc(C)c(S(N)(=O)=O)c(C)c3)C2)n1 (stereo not drawn) | 500 | 2000 | 3300 | 8300 | 28000 | ≥ 200000 | – | 6000 | 910 | 1500 | 3700 | – | 318 |
| Cc1cc(N2CC(C(=O)N/N=C/c3ccc(Cl)cc3)CC2=O)c(Cl)c(C)c1S(N)(=O)=O (stereo not drawn) | 3.8 | 91 | 35 | 2000 | 650 | ≥ 200000 | – | 510 | 100 | 670 | 200 | – | – |
